Where no end group is shown, it is not given here. [ ]: non-standard residue; d: D form.
Tested on: transgenic ALS mice (tg G93R SOD1 mice)
Experiment: Treatment studies in transgenic ALS mice: behavioral and motor tests (open field, SHIRPA, pole, hind-leg grip strength, rotarod, hind-leg spread) and histological analyses
Assay type: in vivo
Settings: two treatment studies
Procedure: To analyze the anti-inflammatory effect of RD2RD2 as a potential therapeutic for treating ALS, two treatment studies were carried out in transgenic ALS mice (tg G93R SOD1 mice).

ptlhthnrrrrrptlhthnrrrrr ([dP][dT][dL][dH][dT][dH][dN][dR][dR][dR][dR][dR][dP][dT][dL][dH][dT][dH][dN][dR][dR][dR][dR][dR]) [RD2RD2]
disease onset (behavioral and motor tests): delays disease onset | disease progression (behavioral and motor tests): slows disease progression | inflammatory reactions (histological analyses): reduces inflammatory reactions

— patent US20210087232A1, “D-ENANTIOMERIC PEPTIDES FOR ANTI-INFLAMMATORY TREATMENT OF AMYOTROPIC LATERAL SCLEROSIS (ALS) AND OTHER DISEASES DRIVEN BY NEURO-INFLAMMATION” (FORSCHUNGSZENTRUM JUELICH GMBH, priority 2018, published 2021)
